Measurements taken from PubChem BioAssay (NCI).
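At the GI50, growth is halved. Definition used: TGI = concentration required for complete inhibition of growth.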

Assays:
Assay in all cases: NCI tumour cell line growth inhibition, 384-well format
[1] = test system: A498 renal
[2] = test system: MDA-MB-435 melanoma
[3] = test system: IGROV1 ovarian
[4] = test system: BT-549 breast
[5] = test system: A549 NSCLC
[6] = test system: HT29 colon
[7] = test system: M14 melanoma
[8] = test system: ACHN renal
[9] = test system: NCI-H460 NSCLC
[10] = test system: UACC-62 melanoma
[11] = test system: DU-145 prostate
[12] = test system: SF-268 CNS
[13] = test system: MALME-3M melanoma

Row | SMILES | GI50 [1] | TGI [1] | GI50 [2] | TGI [2] | GI50 [3] | TGI [3] | GI50 [4] | TGI [4] | GI50 [5] | TGI [5] | GI50 [6] | TGI [6] | GI50 [7] | TGI [7] | GI50 [8] | TGI [8] | GI50 [9] | TGI [9] | GI50 [10] | TGI [10] | further results
1 | CN(C)C(=O)c1cc2cnc(Nc3ccc(N4CCNCC4)cn3)nc2n1C1CCCC1 | 23.9 µM | 45.1 µM | 52.2 µM | > 100 µM | 26.2 µM | 98.8 µM | 20.2 µM | 58.9 µM | 23.5 µM | > 84.1 µM | 24.9 µM | > 51.6 µM | 30.2 µM | > 89.2 µM | 5.81 µM | 46.7 µM | 12.3 µM | > 61.5 µM | 18.2 µM | > 63.7 µM | GI50 [11]: 16.7 µM; TGI [11]: 43.9 µM; GI50 [12]: 24.8 µM; TGI [12]: 46.6 µM; GI50 [13]: 11.1 µM; TGI [13]: 31.2 µM
2 | COc1cc2nccc(Oc3ccc(NC(=O)C4(C(=O)Nc5ccc(F)cc5)CC4)cc3)c2cc1OC | 3.29 µM | 12.2 µM | 3.94 µM | 12 µM | 1.64 µM | 3.8 µM | 4.15 µM | 12.9 µM | 2.46 µM | 6.13 µM | 3.17 µM | 12.3 µM | 2.67 µM | 7.03 µM | 3.54 µM | 16 µM | 3.14 µM | 9.27 µM | 2.23 µM | 6.52 µM | GI50 [11]: 4.85 µM; TGI [11]: 31.5 µM; GI50 [12]: 3.68 µM; TGI [12]: 12.4 µM; GI50 [13]: 2 µM; TGI [13]: 5.44 µM
3 | O=C(Nc1cccc(C(F)(F)F)c1)Nc1cc(S(=O)(=O)NC2CC2)ccc1-c1ccsc1 | 2.86 µM | 8.34 µM | 6.53 µM | 18.9 µM | 8.86 µM | 21.7 µM | 7.6 µM | 19.8 µM | 4.02 µM | 13.7 µM | 4.35 µM | 14.9 µM | 5.88 µM | 16.7 µM | 3.25 µM | 11.9 µM | 2.4 µM | 5.08 µM | 7.26 µM | 19.5 µM | GI50 [11]: 6.35 µM; TGI [11]: 16.4 µM; GI50 [12]: 4.84 µM; TGI [12]: 14.4 µM; GI50 [13]: 6.91 µM; TGI [13]: 18.9 µM
